According to ChEMBL document CHEMBL1135890, “Structure-activity relationships of 2'-fluoro-2',3'-unsaturated D-nucleosides as anti-HIV-1 agents” (J Med Chem, 2002):
Each block holds one molecule with its values, some of them ahead of it.

Tests used:
Vero [1] = assay: (§1) Cytotoxicity against Vero cells was determined.; format: cell-based; conditions: Chlorocebus sabaeus
CCRF-CEM [2] = assay: Cytotoxicity against CEM cells; format: cell-based, Homo sapiens
[3] = (§2) Toxicity against human peripheral blood mononuclear (PBM) cells
[4] = test system: Human immunodeficiency virus 1; assay: Anti-HIV activity was determined; format: functional, organism-based
[5] = Anti-HIV activity against human peripheral blood mononuclear (PBM) cell lines infected with XxBRU Pitt (FTC sensitive isolate); format: functional
[6] = Anti-HIV activity against human peripheral blood mononuclear (PBM) cell lines infected with M184V Pitt (FTC resistant isolate); format: functional
Vero [7] = assay: as §1; format: functional, cell-based; conditions: Chlorocebus sabaeus
CCRF-CEM [8] = assay: Cytotoxicity against CEM cells was determined.; format: functional, cell-based; conditions: Homo sapiens
[9] = as §2; format: functional
[10] = Half life at pH 2.0; format: ADME; conditions: buffer
[11] = Half life was determined.; format: ADME
[12] = human, peripheral blood mononuclear (PBM) cells, IC50

Compound: Nc1nc(F)nc2c1ncn2[C@@H]1O[C@H](CO)C=C1F
IC50 (Vero [1]): > 100 µM
IC50 (CCRF-CEM [2]; Homo sapiens, CCRF-CEM): > 100 µM
IC50 [3, 12]: > 100 µM
EC50 ([4]; Human immunodeficiency virus 1): > 100 µM

Compound: OC[C@@H]1C=C(F)[C@H](n2cnc3c(O)ncnc32)O1
EC50 [5]: 2.8 µM
IC50 (Vero [1]): 87.7 µM
IC50 (CCRF-CEM [2]; Homo sapiens, CCRF-CEM): > 100 µM
IC50 [3, 12]: 92.7 µM
EC50 ([4]; Human immunodeficiency virus 1): 1 µM
EC50 [6]: 2.5 µM

Compound: Nc1nc(N)c2ncn([C@@H]3O[C@H](CO)C=C3F)c2n1
IC50 (Vero [1]): > 100 µM
IC50 (CCRF-CEM [2]; Homo sapiens, CCRF-CEM): > 100 µM
IC50 [3, 12]: > 100 µM
EC50 ([4]; Human immunodeficiency virus 1): 3 µM

Compound: Nc1nc(F)nc2c1ncn2[C@H]1O[C@H](CO)C=C1F
IC50 (Vero [1]): 16.1 µM
IC50 (CCRF-CEM [2]; Homo sapiens, CCRF-CEM): 28.3 µM
IC50 [3, 12]: 41.2 µM
EC50 ([4]; Human immunodeficiency virus 1): 3.97 µM

Compound: Nc1ncnc2c1ncn2[C@@H]1O[C@H](CO)C=C1F (stereo in doubt; 14)
EC50 [5]: 0.46 µM
IC50 (Vero [7]): > 100 µM
IC50 (CCRF-CEM [8]): 57.6 µM
IC50 [9]: 68.3 µM
half-life [10]: 72 h
EC50 [4]: 0.44 µM
half-life [11]: 41.6 min
EC50 [6]: 0.8 µM

Compound: Nc1ncnc2c1ncn2[C@@H]1O[C@H](CO)C=C1F (stereo in doubt; 15)
IC50 (Vero [1]): > 100 µM
IC50 (CCRF-CEM [2]; Homo sapiens, CCRF-CEM): > 100 µM
IC50 [3, 12]: > 100 µM
EC50 [4]: > 100 µM

Compound: Nc1nc(O)c2ncn([C@@H]3O[C@H](CO)C=C3F)c2n1 (stereo in doubt; 18)
EC50 [6]: 11.2 µM

Compound: Nc1nc(O)c2ncn([C@@H]3O[C@H](CO)C=C3F)c2n1 (stereo in doubt; 19)
IC50 (Vero [1]): > 100 µM
IC50 (CCRF-CEM [2]; Homo sapiens, CCRF-CEM): > 100 µM
IC50 [3, 12]: > 100 µM
EC50 [4]: 18.3 µM

Compound: Nc1nc(=O)n([C@@H]2O[C@H](CO)C=C2F)cc1F (stereo in doubt; 30)
EC50 [5]: 3.1 µM
IC50 (Vero [1]): > 100 µM
IC50 (CCRF-CEM [2]; Homo sapiens, CCRF-CEM): > 100 µM
IC50 [3, 12]: > 100 µM
EC50 [4]: 0.82 µM
EC50 [6]: 9.61 µM

Compound: Nc1nc(=O)n([C@@H]2O[C@H](CO)C=C2F)cc1F (stereo in doubt; 31)
EC50 [4]: > 100 µM

Compound: Cc1cn([C@H]2C[C@H](N=[N+]=[N-])[C@@H](CO)O2)c(=O)[nH]c1=O [ZIDOVUDINE]
EC50 [5]: 0.005 µM
IC50 [3, 12]: > 100 µM
EC50 [6]: 0.004 µM

Continued, in another order:

EC50 ([4]; Human immunodeficiency virus 1): > 100 µM
Compound: Nc1nc(N)c2ncn([C@@H]3O[C@@H](CO)C=C3F)c2n1
IC50 (Vero [1]): > 100 µM
IC50 (CCRF-CEM [2]; Homo sapiens, CCRF-CEM): > 100 µM
IC50 [3, 12]: > 100 µM

EC50 ([4]; Human immunodeficiency virus 1): > 100 µM
Compound: OC[C@@H]1C=C(F)[C@@H](n2cnc3c(O)ncnc32)O1
IC50 (Vero [1]): > 100 µM
IC50 (CCRF-CEM [2]; Homo sapiens, CCRF-CEM): > 100 µM
IC50 [3, 12]: > 100 µM

EC50 ([4]; Human immunodeficiency virus 1): > 100 µM
Compound: Cc1cn([C@@H]2O[C@H](CO)C=C2F)c(=O)nc1N
IC50 (Vero [1]): > 100 µM
IC50 (CCRF-CEM [2]; Homo sapiens, CCRF-CEM): > 100 µM
IC50 [3, 12]: > 100 µM

EC50 [4]: 4.3 µM
Compound: Nc1nc(Cl)c2ncn([C@@H]3O[C@H](CO)C=C3F)c2n1 (stereo in doubt; 11)
IC50 (CCRF-CEM [2]; ccrf-cem): > 100 µM
IC50 [3]: 98.8 µM

EC50 [4]: > 75 µM
Compound: Nc1nc(Cl)c2ncn([C@@H]3O[C@H](CO)C=C3F)c2n1 (stereo in doubt; 13)
IC50 (Vero [1]): > 100 µM
IC50 (CCRF-CEM [2]; ccrf-cem): 30.2 µM
IC50 [3, 12]: 77.4 µM

EC50 [4]: 2.6 µM
Compound: Nc1ccn([C@@H]2O[C@H](CO)C=C2F)c(=O)n1 (stereo in doubt; 28)
IC50 (CCRF-CEM [2]; ccrf-cem): 35.3 µM
IC50 [3]: 7.3 µM

EC50 [4]: > 100 µM
Compound: Nc1ccn([C@@H]2O[C@H](CO)C=C2F)c(=O)n1 (stereo in doubt; 29)
IC50 (Vero [1]): > 100 µM
IC50 (CCRF-CEM [2]; ccrf-cem): > 100 µM
IC50 [3]: > 100 µM

half-life [11]: 0.417 min
Compound: Nc1ncnc2c1ncn2[C@@H]1O[C@H](CO)[C@@H](O)[C@H]1O [ADENOSINE]
